What was measured:
Format in all cases: biochemical
[1] = target: T1, Mycobacterium avium CAR (SEQ ID NO:153) Variant 1 of Table 14, K275D N276S F278S A283C I300G N335D (Mycobacterium avium, UniProt A0ACD7BNV2, A283C/F278S/G391S/I300G/K275D/N276S/N335D); test: CAR lysate assay with 10 mM 6ACA ± 125 mM HMD or 0.25M HMD (Table 15), CAR Variant 1
[2] = target: Mycobacterium avium CAR (SEQ ID NO:153) Variant 1 of Table 14 (K275D N276S F278S A283C I300G N335D), Variant 36 A282P M296A M389S N401T F425L (Mycobacterium avium, UniProt A0ACD7BNV2, A282P/A283C/F278S/F425L/G391S/I300G/K275D/M296A/M389S/N276S/N335D/N401T); test: CAR lysate assay with 30 mM 6ACA ± 0.25M HMD (Table 14), Variant 36; settings: Variant 36, Table 14, 6ACA
[3] = target: T1, Mycobacterium avium CAR (SEQ ID NO:153) Variant 1 of Table 14, K275D N276S F278S A283C I300G N335D; test: CAR lysate assay with 30 mM 6ACA ± 0.25M HMD (Table 14), CAR Variant 1; settings: CAR Variant 1, Table 14, 6ACA
[4] = target: Mycobacterium avium CAR (SEQ ID NO:153) Variant 1 of Table 14 (K275D N276S F278S A283C I300G N335D), Variant 38 A282P M296A N401T F425L (Mycobacterium avium, UniProt A0ACD7BNV2, A282P/A283C/F278S/F425L/G391S/I300G/K275D/M296A/N276S/N335D/N401T); test: CAR lysate assay with 30 mM 6ACA ± 0.25M HMD (Table 14), Variant 38; settings: Variant 38, Table 14, 6ACA
[5] = target: Mycobacterium avium CAR (SEQ ID NO:153) Variant 1 of Table 14 (K275D N276S F278S A283C I300G N335D), Variant 33 A282P M296A F425L (Mycobacterium avium, UniProt A0ACD7BNV2, A282P/A283C/F278S/F425L/G391S/I300G/K275D/M296A/N276S/N335D); test: CAR lysate assay with 30 mM 6ACA ± 0.25M HMD (Table 14), Variant 33; settings: Variant 33, Table 14, 6ACA
[6] = target: Mycobacterium avium CAR (SEQ ID NO:153) Variant 1 of Table 14 (K275D N276S F278S A283C I300G N335D), Variant 4 S274P (Mycobacterium avium, UniProt A0ACD7BNV2, A283C/F278S/G391S/I300G/K275D/N276S/N335D/S274P); test: CAR lysate assay with 30 mM 6ACA ± 0.25M HMD (Table 14), Variant 4; settings: Variant 4, Table 14, 6ACA
[7] = target: Mycobacterium avium CAR (SEQ ID NO:153) Variant 1 of Table 14 (K275D N276S F278S A283C I300G N335D), Variant 12 M296H (Mycobacterium avium, UniProt A0ACD7BNV2, A283C/F278S/G391S/I300G/K275D/M296H/N276S/N335D); test: CAR lysate assay with 30 mM 6ACA ± 0.25M HMD (Table 14), Variant 12; settings: Variant 12, Table 14, 6ACA
[8] = target: Mycobacterium avium CAR (SEQ ID NO:153) Variant 1 of Table 14 (K275D N276S F278S A283C I300G N335D), Variant 34 A282P M296A F425T (Mycobacterium avium, UniProt A0ACD7BNV2, A282P/A283C/F278S/F425T/G391S/I300G/K275D/M296A/N276S/N335D); test: CAR lysate assay with 30 mM 6ACA ± 0.25M HMD (Table 14), Variant 34; settings: Variant 34, Table 14, 6ACA
[9] = target: Mycobacterium avium CAR (SEQ ID NO:153) Variant 1 of Table 14 (K275D N276S F278S A283C I300G N335D), Variant 35 A282P M296A M389S F425N (Mycobacterium avium, UniProt A0ACD7BNV2, A282P/A283C/F278S/F425N/G391S/I300G/K275D/M296A/M389S/N276S/N335D); test: CAR lysate assay with 30 mM 6ACA ± 0.25M HMD (Table 14), Variant 35; settings: Variant 35, Table 14, 6ACA
[10] = target: Mycobacterium avium CAR (SEQ ID NO:153) Variant 1 of Table 14 (K275D N276S F278S A283C I300G N335D), Variant 37 A282P M296A M389S N401T F425N (Mycobacterium avium, UniProt A0ACD7BNV2, A282P/A283C/F278S/F425N/G391S/I300G/K275D/M296A/M389S/N276S/N335D/N401T); test: CAR lysate assay with 30 mM 6ACA ± 0.25M HMD (Table 14), Variant 37; settings: Variant 37, Table 14, 6ACA
[11] = system: carboxylic acid reductase (CAR); settings: 6ACA as substrate, 30 mM or 10 mM; HMD 125 mM or 0.25M

**Q.** Which Vmax ([1]; CAR Variant 1, Table 15, 6ACA) does the source give for `NCCCCCC(=O)O` [6ACA] here?
**A.** +++ (>10.0)

**Q.** And the Vmax [2]?
**A.** ++ (5.0-10.0)

**Q.** What about the Vmax [3] of the same compound?
**A.** +++ (>10.0)

**Q.** And the Vmax [4]?
**A.** ++ (5.0-10.0)

**Q.** And the Vmax [5]?
**A.** + (<5)

**Q.** What about the Vmax [6] of the same compound?
**A.** +++ (>10.0)

**Q.** And the Vmax [7]?
**A.** +++ (>10.0)

**Q.** What about the Vmax [8] of the same compound?
**A.** + (<5)

**Q.** What about the Vmax [9] of the same compound?
**A.** ++ (5.0-10.0)

**Q.** And the Vmax [10]?
**A.** ++ (5.0-10.0)

**Q.** Which results are given for `NCCCCCCN` [HMD, hexamethylenediamine, reference compound]?
**A.** inhibition of CAR in the presence of HMD [11]: inhibited; % inhibition @ 0.25M HMD & 10 mM 6ACA ([1]; CAR Variant 1, 0.25M HMD, 10 mM 6ACA): ++ (60-90)

Source: US20240294885A1, “ENGINEERED ENZYMES AND METHODS OF MAKING AND USING” (priority 2021, published 2024)
